Assay results reported in patent US20140256690A1, “CONTRACEPTIVE METHOD” (AGILE THERAPEUTICS, INC., priority 2013, published 2014).

Assay: Saturation solubilities of enhancers in PSAs
Type: physicochemical
[1] = in Duro-Tak 87-4098 (polyacrylate PSA)

Row | Saturation Solubilities [1] | Saturation Solubilities (in PIB PSA) | SMILES
1 | 1000 mg/g | 785 mg/g | CCCCCCCCCCCCOC(=O)C(C)O (stereo not shown) [Lauryl Lactate, lauryl lactate]
2 | 8 mg/g | 0.01 mg/g | C[S+](C)[O-] [DMSO, dimethyl sulfoxide]
